Measurements reported in patent US10676465B2, “GLP-1 receptor agonists and uses thereof” (Pfizer Inc., priority 2018, dated 2020).
Where two headings read alike, the source gives them in different places.

Tests used:
[1] = biological target: human GLP-1R (Homo sapiens, UniProt P43220, G168S); experiment: CHO GLP-1R Clone H6 - Assay 1 (HTRF cAMP agonist assay); format: cell-based; details: for EC50: CHO GLP-1R Clone H6, cAMP HTRF, geometric mean; for Emax / Assay 1 Emax (%): CHO GLP-1R Clone H6, arithmetic mean, relative to saturating GLP-1 (1 μM)
Sequence of human GLP-1R (Homo sapiens, UniProt P43220, G168S) (P43220 24-463 G168S limits assumed): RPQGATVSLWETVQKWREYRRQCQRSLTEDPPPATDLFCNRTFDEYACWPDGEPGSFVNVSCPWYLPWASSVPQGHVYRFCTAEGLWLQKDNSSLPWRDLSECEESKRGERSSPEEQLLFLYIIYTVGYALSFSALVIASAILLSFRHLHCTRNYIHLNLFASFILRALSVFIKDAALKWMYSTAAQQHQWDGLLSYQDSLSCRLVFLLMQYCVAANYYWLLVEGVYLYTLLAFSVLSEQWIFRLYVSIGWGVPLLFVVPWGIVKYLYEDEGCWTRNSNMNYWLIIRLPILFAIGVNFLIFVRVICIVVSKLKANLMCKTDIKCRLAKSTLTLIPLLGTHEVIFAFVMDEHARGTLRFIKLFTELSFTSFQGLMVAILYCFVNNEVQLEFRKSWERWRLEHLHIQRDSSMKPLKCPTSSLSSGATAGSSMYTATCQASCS

[2] = biological target: human GLP-1R (Homo sapiens (Human), UniProt P43220, L260F); experiment: CHO GLP-1R Clone C6 - Assay 2 (HTRF cAMP agonist assay, low receptor density); details: for EC50: cAMP HTRF, geometric mean; for Emax: read-out: Assay 2 Emax (%), CHO GLP-1R Clone C6 (low receptor density)
Sequence of human GLP-1R (Homo sapiens (Human), UniProt P43220, L260F) (P43220 24-463 L260F): as the sequence (P43220 24-463 G168S limits assumed) above, with S145G, L237F counted along it
Experimental: CHO GLP-1R Clone C6—Assay 2
GLP-1R-mediated agonist activity was determined with a cell-based functional assay utilizing an HTRF (Homogeneous Time-Resolved Fluorescence) cAMP detection kit (cAMP HI Range Assay Kit; Cis Bio cat #62AM6PEJ) that measures cAMP levels in the cell. The method is a competitive immunoassay between native cAMP produced by the cells and exogenous cAMP labeled with the dye d2. The tracer binding is visualized by a mAb anti-cAMP labeled with Cryptate. The specific signal (i.e. energy transfer) is inversely proportional to the concentration of cAMP in either a standard or an experimental sample.
The human GLP-1R coding sequence (NCBI Reference Sequence NP_002053.3, including naturally-occurring variant Leu260Phe) was subcloned into pcDNA5-FRT-TO and a clonal CHO cell line stably expressing a low receptor density was isolated using the Flp-In™ T-Rex™ System, as described by the manufacturer (ThermoFisher).
Cells were removed from cryopreservation, re-suspended in 40 mL of Dulbecco's Phosphate Buffered Saline (DPBS—Lonza Cat #17-512Q) and centrifuged at 800×g for 5 minutes at 22° C. The DPBS was aspirated, and the cell pellet was re-suspended in 10 mL of complete growth medium (DMEM:F12 1:1 Mixture with HEPES, L-Gln, 500 mL (DMEM/F12 Lonza Cat #12-719F), 10% heat inactivated fetal bovine serum (Gibco Cat #16140-071), 5 mL of 100× Pen-Strep (Gibco Cat #15140-122), 5 mL of 100×L-Glutamine (Gibco Cat #25030-081), 700 μg/mL Hygromycin (Invitrogen Cat #10687010) and 15 μg/mL Blasticidin (Gibco Cat # R21001). A 1 mL sample of the cell suspension in growth media was counted on a Becton Dickinson ViCell to determine cell viability and cell count per mL. The remaining cell suspension was then adjusted with growth media to deliver 1600 viable cells per well using a Matrix Combi Multidrop reagent dispenser, and the cells were dispensed into a white 384 well tissue culture treated assay plate (Corning 3570). The assay plate was then incubated for 48 hours at 37° C. in a humidified environment (95% O2, 5% CO2)
Varying concentrations of each compound to be tested (in DMSO) were diluted in assay buffer [HBSS with Calcium/Magnesium (Lonza/BioWhittaker cat #10-527F)/0.1% BSA (Sigma Aldrich cat # A7409-1L)/20 mM HEPES (Lonza/BioWhittaker cat #17-737E)] containing 100 μM 3-isobutyl-1-methylxanthin (IBMX; Sigma cat #15879). The final DMSO concentration in the compound/assay buffer mixture is 1%.
After 48 hours, the growth media was removed from the assay plate wells, and the cells were treated with 20 μL of the serially diluted compound in assay buffer for 30 minutes at 37° C. in a humidified environment (95% O2, 5% CO2). Following the 30 minute incubation, 10 μL of labeled d2 cAMP and 10 μL of anti-cAMP antibody (both diluted 1:20 in cell lysis buffer; as described in the manufacturer's assay protocol) were added to each well of the assay plate. The plates were then incubated at room temperature and after 60 minutes, changes in the HTRF signal were read with an Envision 2104 multi-label plate reader using excitation of 330 nm and emissions of 615 and 665 nm. Raw data were converted to nM cAMP by interpolation from a cAMP standard curve (as described in the manufacturer's assay protocol) and the percent effect was determined relative to a saturating concentration of the full agonist GLP-1 (1 μM) included on each plate. EC50 determinations were made from agonist dose response curves analyzed with a curve fitting program using a 4-parameter logistic dose response equation.

[3] = Assay 2 EC50 (nM), CHO GLP-1R Clone C6 (low receptor density)
[4] = read-out: Assay 2 EC50, CHO GLP-1R Clone C6 (low receptor density)
[5] = arithmetic mean, relative to saturating GLP-1 (1 μM)

Structure (SMILES) | EC50 [1] [nM] | EC50 [2, 3] [nM] | Emax [1] [%] | EC50 [2, 4] [nM] | Emax [2, 5] [%] | Assay 1 Emax (%) [1] [%] | Assay 2 Emax (%) ([2]; CHO GLP-1R Clone C6 (low receptor density), arithmetic mean, relative to saturating GLP-1 (1 μM))
COCCn1c(CN2CCC(c3cccc4c3OC(c3ccc(Cl)cc3F)O4)CC2)nc2ccc(C(=O)O)cc21 (stereo not shown) [Example 21, 2-({4-[2-(4-chloro-2-fluorophenyl)-1,3-benzodioxol-4-yl]piperidin-1-yl}methyl)-1-(2-methoxyethyl)-1H-benzimidazole-6-carboxylic acid] | > 20000 | > 20000 | – | – | – | – | –
COCCn1c(CN2CCC(c3cccc4c3OC(C)(c3ccc(Cl)cc3F)O4)CC2)nc2ccc(C(=O)O)cc21 (stereo not shown) [Example 24, 2-({4-[2-(4-chloro-2-fluorophenyl)-2-methyl-1,3-benzodioxol-4-yl]piperidin-1-yl}methyl)-1-(2-methoxyethyl)-1H-benzimidazole-6-carboxylic acid] | 1.4 | – | 82 | 49 | 110 | – | –
COCCn1c(C2CC23CCN(c2cccc4c2OC(C)(c2ccc(Cl)cc2F)O4)CC3)nc2ccc(C(=O)O)cc21 (single isomer, unassigned) [Example 16, 2-{6-[2-(4-Chloro-2-fluorophenyl)-2-methyl-1,3-benzodioxol-4-yl]-6-azaspiro[2.5]oct-1-yl}-1-(2-methoxyethyl)-1H-benzimidazole-6-carboxylic Acid] | 7.7 | 120 | – | – | 64 | 90 | –
COCCn1c(C2CC23CCN(c2cccc4c2OC(C)(c2ccc(Cl)cc2F)O4)CC3)nc2ccc(C(=O)O)cc21 (single isomer, unassigned) [Example 15, 2-{6-[2-(4-Chloro-2-fluorophenyl)-2-methyl-1,3-benzodioxol-4-yl]-6-azaspiro[2.5]oct-1-yl}-1-(2-methoxyethyl)-1H-benzimidazole-6-carboxylic Acid] | > 18000 | > 20000 | 100 | – | – | – | –
CC1(c2ccc(Cl)cc2F)Oc2cccc(C3CCN(Cc4nc5ccc(C(=O)O)cc5n4CCN4CCOC4=O)CC3)c2O1 (stereo not shown) [Example 46, 2-({4-[2-(4-chloro-2-fluorophenyl)-2-methyl-1,3-benzodioxol-4-yl]piperidin-1-yl}methyl)-1-[2-(2-oxo-1,3-oxazolidin-3-yl)ethyl]-1H-benzimidazole-6-carboxylic acid] | 5.2 | – | 95 | 57 | 96 | – | –
Cn1cc(CCn2c(CN3CCC(c4cccc5c4OC(C)(c4ccc(Cl)cc4F)O5)CC3)nc3ccc(C(=O)O)cc32)nn1 (stereo not shown) [Example 60, 2-({4-[2-(4-chloro-2-fluorophenyl)-2-methyl-1,3-benzodioxol-4-yl]piperidin-1-yl}methyl)-1-[2-(1-methyl-1H-1,2,3-triazol-4-yl)ethyl]-1H-benzimidazole-6-carboxylic acid] | 15 | – | 82 | 240 | 60 | – | –
CC1(c2ccc(Cl)cc2F)Oc2c(F)ccc(C3CCN(Cc4nc5ccc(C(=O)O)cc5n4C[C@@H]4CCO4)CC3)c2O1 (single isomer, unassigned) [Example 97] | 14 | 140 | – | – | – | 86 | 93
CC1(c2ccc(Cl)cc2F)Oc2cccc(C3CCN(Cc4nc5ccc(C(=O)O)cc5n4Cc4cccnc4)CC3)c2O1 (stereo not shown) [Example 65, 2-({4-[2-(4-chloro-2-fluorophenyl)-2-methyl-1,3-benzodioxol-4-yl]piperidin-1-yl}methyl)-1-(pyridin-3-ylmethyl)-1H-benzimidazole-6-carboxylic acid] | 1.2 | – | 99 | 11 | 99 | – | –
COCc1cc(Cn2c(CN3CCC(c4cccc5c4OC(C)(c4ccc(Cl)cc4F)O5)CC3)nc3ccc(C(=O)O)cc32)[nH]n1 (stereo not shown) [Example 68, 2-({4-[2-(4-chloro-2-fluorophenyl)-2-methyl-1,3-benzodioxol-4-yl]piperidin-1-yl}methyl)-1-{[3-(methoxymethyl)-1H-pyrazol-5-yl]methyl}-1H-benzimidazole-6-carboxylic acid] | 73 | – | 89 | 1200 | 94 | – | –
COCCn1c(CN2CCC(c3cccc4c3OC(C)(c3ccc(OC)c(F)c3)O4)CC2)nc2ccc(C(=O)O)cc21 (stereo not shown) [Example 30, 2-({4-[2-(3-fluoro-4-methoxyphenyl)-2-methyl-1,3-benzodioxol-4-yl]piperidin-1-yl}methyl)-1-(2-methoxyethyl)-1H-benzimidazole-6-carboxylic acid] | 45 | – | 86 | 1100 | 77 | – | –
CC1(c2ccc(C#N)cc2F)Oc2cccc(C3CCN(Cc4nc5ccc(C(=O)O)cc5n4C[C@@H]4CCO4)CC3)c2O1 (single isomer, unassigned) [Example 8] | 0.3 | 3.6 | 92 | – | 91 | – | –
COCCn1c(CN2CCC(c3cccc4c3OC(C)(c3ccc(C)nc3)O4)CC2)nc2ccc(C(=O)O)cc21 (stereo not shown) [Example 42, 1-(2-methoxyethyl)-2-({4-[2-methyl-2-(6-methylpyridin-3-yl)-1,3-benzodioxol-4-yl]piperidin-1-yl}methyl)-1H-benzimidazole-6-carboxylic acid] | 120 | – | 93 | 1700 | 83 | – | –

Continued by falling EC50 [1], values first:

EC50 [1] [nM] | EC50 [2, 3] [nM] | Emax [1] [%] | EC50 [2, 4] [nM] | Emax [2, 5] [%] | Assay 1 Emax (%) [1] [%] | Assay 2 Emax (%) ([2]; CHO GLP-1R Clone C6 (low receptor density), arithmetic mean, relative to saturating GLP-1 (1 μM)) | Structure (SMILES)
74 | – | 81 | 1100 | 50 | – | – | Cn1cnc(CCn2c(CN3CCC(c4cccc5c4OC(C)(c4ccc(Cl)cc4F)O5)CC3)nc3ccc(C(=O)O)cc32)c1 (stereo not shown) [Example 55, 2-({4-[2-(4-chloro-2-fluorophenyl)-2-methyl-1,3-benzodioxol-4-yl]piperidin-1-yl}methyl)-1-[2-(1-methyl-1H-imidazol-4-yl)ethyl]-1H-benzimidazole-6-carboxylic acid]
51 | – | 82 | 850 | 74 | – | – | CN(C)C(=O)Cn1c(CN2CCC(c3cccc4c3OC(C)(c3ccc(Cl)cc3F)O4)CC2)nc2ccc(C(=O)O)cc21 (stereo not shown) [Example 66, 2-({4-[2-(4-chloro-2-fluorophenyl)-2-methyl-1,3-benzodioxol-4-yl]piperidin-1-yl}methyl)-1-[2-(dimethylamino)-2-oxoethyl]-1H-benzimidazole-6-carboxylic acid]
42 | – | 75 | 1400 | 76 | – | – | CN(C)S(=O)(=O)CCn1c(CN2CCC(c3cccc4c3OC(C)(c3ccc(Cl)cc3F)O4)CC2)nc2ccc(C(=O)O)cc21 (stereo not shown) [Example 47, 2-({4-[2-(4-chloro-2-fluorophenyl)-2-methyl-1,3-benzodioxol-4-yl]piperidin-1-yl}methyl)-1-[2-(dimethylsulfamoyl)ethyl]-1H-benzimidazole-6-carboxylic acid]
18 | – | 82 | 160 | 64 | – | – | CC1(c2ccc(Cl)cc2F)Oc2cccc(C3CCN(Cc4nc5ccc(C(=O)O)cc5n4CCCn4cncn4)CC3)c2O1 (stereo not shown) [Example 54, 2-({4-[2-(4-chloro-2-fluorophenyl)-2-methyl-1,3-benzodioxol-4-yl]piperidin-1-yl}methyl)-1-[3-(1H-1,2,4-triazol-1-yl)propyl]-1H-benzimidazole-6-carboxylic acid]
17 | – | 85 | 270 | 100 | – | – | COCCn1c(CN2CCC(c3cccc4c3OC(c3ccc(Cl)cc3F)O4)CC2)nc2ccc(C(=O)O)cc21 (stereo not shown) [Example 20, 2-({4-[2-(4-chloro-2-fluorophenyl)-1,3-benzodioxol-4-yl]piperidin-1-yl}methyl)-1-(2-methoxyethyl)-1H-benzimidazole-6-carboxylic acid]
7.8 | – | 98 | 110 | 88 | – | – | COCCn1c(CN2CCC(c3cccc4c3OC(C)(c3ccc(C#N)cc3)O4)CC2)nc2ccc(C(=O)O)cc21 (stereo not shown) [Example 34, 2-({4-[2-(4-cyanophenyl)-2-methyl-1,3-benzodioxol-4-yl]piperidin-1-yl}methyl)-1-(2-methoxyethyl)-1H-benzimidazole-6-carboxylic acid]
4.5 | 38 | 95 | – | 110 | – | – | CC1(c2ccc(Cl)cc2F)Oc2cccc(C3CCN(Cc4nc5ccc(C(=O)O)nc5n4Cc4ncco4)CC3)c2O1 (stereo not shown) [Example 13, 2-({4-[2-(4-Chloro-2-fluorophenyl)-2-methyl-1,3-benzodioxol-4-yl]piperidin-1-yl}methyl)-3-(1,3-oxazol-2-ylmethyl)-3H-imidazo[4,5-b]pyridine-5-carboxylic Acid]
4 | – | 98 | 23 | 88 | – | – | CC1(c2ccc(Cl)cc2F)Oc2cccc(C3CCN(Cc4nc5ccc(C(=O)O)cc5n4Cc4cocn4)CC3)c2O1 (stereo not shown) [Example 58, 2-({4-[2-(4-chloro-2-fluorophenyl)-2-methyl-1,3-benzodioxol-4-yl]piperidin-1-yl}methyl)-1-(1,3-oxazol-4-ylmethyl)-1H-benzimidazole-6-carboxylic acid]
3.4 | – | 85 | 44 | 88 | – | – | COCCn1c(CN2CCC(c3cccc4c3OC(C)(c3ccc(OC)cc3Cl)O4)CC2)nc2ccc(C(=O)O)cc21 (stereo not shown) [Example 83, 2-({4-[2-(2-chloro-4-methoxyphenyl)-2-methyl-1,3-benzodioxol-4-yl]piperidin-1-yl}methyl)-1-(2-methoxyethyl)-1H-benzimidazole-6-carboxylic acid]
1.4 | – | 85 | 21 | 85 | – | – | CC1(c2ccc(Cl)cc2F)Oc2cccc(C3CCN(Cc4nc5ccc(C(=O)O)cc5n4C[C@@H]4CCCO4)CC3)c2O1 (stereo partly drawn) [Example 79, 2-({4-[2-(4-chloro-2-fluorophenyl)-2-methyl-1,3-benzodioxol-4-yl]piperidin-1-yl}methyl)-1-[(2S)-tetrahydrofuran-2-ylmethyl]-1H-benzimidazole-6-carboxylic acid]
